Assay results: patent US20250011287A1, “FLUORINE-CONTAINING COMPOUND AND CONTRAST AGENT” (TDK CORPORATION, priority 2021, published 2025)

Experiments:
[1] = 19F spin-spin relaxation time (T2) measurement by CPMG method, 500 MHz NMR; type: physicochemical; conditions: 5 mM/CDCl3, 36° C.
Experimental: (§1) For each of the compounds of Examples 1 to 10, Comparative Example 1, and Comparative Example 2 obtained as above, a ^19F spin-lattice relaxation time (T1) and a ^19F spin-spin relaxation time (T2) were measured by the following method.
The compound was dissolved in a deuterated chloroform solution at a concentration of 5 mM, and the transverse relaxation time (T2) of the ^19F nucleus was measured using a 500 MHz NMR device by a Carr-Purcell-Meiboom-Gill (CPMG) method under the conditions described below.
• NMR device: JNM-ECA500 (manufactured by JOEL) • Measurement temperature: 36° C. • relaxation_delay: 10 [s] • tau_step: 1 [ms] • relaxation_delay: 1, 2, 3, 4, 5, 6, 8, 9, 10, 25, 50, 75 [ms], 0.10, 0.25, 0.50, 0.75, 1.00, 1.25, 1.50, 1.75, 2.00 [s] • Accumulated number of times: 128 times

[2] = 19F spin-lattice relaxation time (T1) measurement by inversion recovery method, 500 MHz NMR; type: physicochemical; conditions: 5 mM/CDCl3, 36° C.
Experimental: as §1
The compound was dissolved in a deuterated chloroform solution at a concentration of 5 mM, and the longitudinal relaxation time (T1) of the ^19F nucleus was measured using a 500 MHz NMR device by an inversion recovery method under the conditions described below.
• NMR device: JNM-ECA500 (manufactured by JOEL) • Measurement temperature: 36° C. • Pulse sequence: double_pulse • relaxation_delay: 10 [s] • tau_interval: 4, 3, 2, 1, 0.8, 0.6, 0.4, 0.2, 0.1 [s], 80, 60, 40, 20, 10, 8, 6, 4, 2 [ms] • Accumulated number of times: 128 times

Molecule | T2 (19F spin-spin relaxation time) [1] | T1 (19F spin-lattice relaxation time) [2]
1,3-Bis(2,2,2-trifluoro-1,1-bis(trifluoromethyl(ethoxy)-2,2-bis((2,2,2-trifluoro-1,1-bis(trifluoromethyl)ethoxy)methyl)propane [Compound A1, reference compound] | 1.270 s | 1.380 s
4-(3-((1,1,1,3,3,3-hexafluoro-2-(trifluoromethyl)propan-2-yl)oxy)-2,2-bis(((1,1,1,3,3,3-hexafluoro-2-(trifluoromethyl)propan-2-yl)oxy)methyl)propoxy)-2,2,6,6-tetramethylpiperidin-1-oxyl [Compound 11] | 0.057 s | 0.077 s
4-(3-((1,1,1,3,3,3-hexafluoro-2-(trifluoromethyl)propan-2-yl)oxy)-2-(((1,1,1,3,3,3-hexafluoro-2-(trifluoromethyl)propan-2-yl)oxy)methyl)-2-methylpropoxy)-2,2,6,6-tetramethylpiperidin-1-oxyl [Compound 13] | 0.050 s | 0.071 s
CCC1(CC)CC(OCC(COC(C(F)(F)F)(C(F)(F)F)C(F)(F)F)(COC(C(F)(F)F)(C(F)(F)F)C(F)(F)F)COC(C(F)(F)F)(C(F)(F)F)C(F)(F)F)CC(CC)(CC)N1O [Compound 12, 4-(3-((1,1,1,3,3,3-hexafluoro-2-(trifluoromethyl)propan-2-yl)oxy)-2,2-bis(((1,1,1,3,3,3-hexafluoro-2-(trifluoromethyl)propan-2-yl)oxy)methyl)propoxy)-2,2,6,6-tetraethylpiperidin-1-oxyl] | 0.049 s | 0.070 s
CC1(C)CC(OCCOCC(COC(C(F)(F)F)(C(F)(F)F)C(F)(F)F)(COC(C(F)(F)F)(C(F)(F)F)C(F)(F)F)COC(C(F)(F)F)(C(F)(F)F)C(F)(F)F)CC(C)(C)N1O [Compound 14] | 0.101 s | 0.153 s
CCC1(CC)CC(OCCOCC(COC(C(F)(F)F)(C(F)(F)F)C(F)(F)F)(COC(C(F)(F)F)(C(F)(F)F)C(F)(F)F)COC(C(F)(F)F)(C(F)(F)F)C(F)(F)F)CC(CC)(CC)N1O [Compound 15] | 0.092 s | 0.145 s
CC1(C)CC(OCCCOCC(COC(C(F)(F)F)(C(F)(F)F)C(F)(F)F)(COC(C(F)(F)F)(C(F)(F)F)C(F)(F)F)COC(C(F)(F)F)(C(F)(F)F)C(F)(F)F)CC(C)(C)N1O [Compound 16] | 0.120 s | 0.183 s
CCC1(CC)CC(OCCCOCC(COC(C(F)(F)F)(C(F)(F)F)C(F)(F)F)(COC(C(F)(F)F)(C(F)(F)F)C(F)(F)F)COC(C(F)(F)F)(C(F)(F)F)C(F)(F)F)CC(CC)(CC)N1O [Compound 17] | 0.108 s | 0.172 s
CC1(C)CC(OCCCCCCOCC(COC(C(F)(F)F)(C(F)(F)F)C(F)(F)F)(COC(C(F)(F)F)(C(F)(F)F)C(F)(F)F)COC(C(F)(F)F)(C(F)(F)F)C(F)(F)F)CC(C)(C)N1O [Compound 18] | 0.274 s | 0.428 s
CC1(C)CC(OCCCCCCCCCOCC(COC(C(F)(F)F)(C(F)(F)F)C(F)(F)F)(COC(C(F)(F)F)(C(F)(F)F)C(F)(F)F)COC(C(F)(F)F)(C(F)(F)F)C(F)(F)F)CC(C)(C)N1O [Compound 19] | 0.332 s | 0.520 s
CC1(C)CC(OCCCCCCCCCCCCOCC(COC(C(F)(F)F)(C(F)(F)F)C(F)(F)F)(COC(C(F)(F)F)(C(F)(F)F)C(F)(F)F)COC(C(F)(F)F)(C(F)(F)F)C(F)(F)F)CC(C)(C)N1O [Compound 20] | 0.390 s | 0.612 s
